Measurements: the supplement of paper PMC10307832

How the values were obtained:
Experiment in all cases: relative viability (nuclei count vs DMSO), 5 days (fraction); higher = more cells survive
XMD14-99 + Alpelisib = compound: CN1CCN(CC1)C2=CC(=C(C=C2)NC3=NC(=C(S3)C(=O)C4=C(C=CC=C4Cl)Cl)N)OC [XMD14-99] + Cc1nc(NC(=O)N2CCC[C@H]2C(N)=O)sc1-c1ccnc(C(C)(C)C(F)(F)F)c1 [Alpelisib] (partner 2 µM)
Summary of the method: (§1)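 Each reported value is a median over duplicate plates. It expresses relative viability: treated-well nuclei count divided by vehicle-well nuclei count. Lung cancer cell lines in 1536-well plates were dosed by pin tool a day after seeding, alone with one drug or with a fixed anchor-drug dose plus five library-drug doses (not always all listed) in √10 steps, and nuclei were counted after 5 days.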

XMD14-99 + Pemetrexed = compound: CN1CCN(CC1)C2=CC(=C(C=C2)NC3=NC(=C(S3)C(=O)C4=C(C=CC=C4Cl)Cl)N)OC [XMD14-99] + Nc1nc2[nH]cc(CCc3ccc(C(=O)N[C@@H](CCC(=O)O)C(=O)O)cc3)c2c(=O)[nH]1 [Pemetrexed] (partner 0.2 µM)
Summary of the method: as §1

AZD1208 + Lapatinib = compound: N[C@@H]1CCCN(c2c(/C=C3\SC(=O)NC3=O)cccc2-c2ccccc2)C1 [AZD1208] + CS(=O)(=O)CCNCc1ccc(-c2ccc3ncnc(Nc4ccc(OCc5cccc(F)c5)c(Cl)c4)c3c2)o1 [Lapatinib] (partner 2 µM)
Summary of the method: as §1

AZD1208 + Decitabine = compound: N[C@@H]1CCCN(c2c(/C=C3\SC(=O)NC3=O)cccc2-c2ccccc2)C1 [AZD1208] + Nc1ncn([C@H]2C[C@H](O)[C@@H](CO)O2)c(=O)n1 [Decitabine] (partner 2 µM)
Summary of the method: as §1

For UMC-11, the relative viability (XMD14-99 + Alpelisib; first compound 0.08 µM) was 0.939, the relative viability (XMD14-99 + Alpelisib; first compound 0.8 µM) was 1.02 and the relative viability (XMD14-99 + Alpelisib; first compound 2.53 µM) was 1.01. The relative viability (XMD14-99 + Alpelisib; first compound 8 µM) was 0.735, the relative viability (XMD14-99 + Pemetrexed; first compound 0.08 µM) was 0.752 and the relative viability (XMD14-99 + Pemetrexed; first compound 0.8 µM) was 0.769. For the same cell line, the relative viability (XMD14-99 + Pemetrexed; first compound 2.53 µM) was 0.688, the relative viability (XMD14-99 + Pemetrexed; first compound 8 µM) was 0.69 and the relative viability (AZD1208 + Lapatinib; first compound 0.08 µM) was 0.819. It also gave a relative viability (AZD1208 + Lapatinib; first compound 0.253 µM) of 0.739, a relative viability (AZD1208 + Lapatinib; first compound 0.8 µM) of 0.679 and a relative viability (AZD1208 + Lapatinib; first compound 2.53 µM) of 0.487. It also gave a relative viability (AZD1208 + Lapatinib; first compound 8 µM) of 0.466, a relative viability (AZD1208 + Decitabine; first compound 0.08 µM) of 0.478 and a relative viability (AZD1208 + Decitabine; first compound 0.253 µM) of 0.513. For the same cell line, the relative viability (AZD1208 + Decitabine; first compound 0.8 µM) was 0.49, the relative viability (AZD1208 + Decitabine; first compound 2.53 µM) was 0.515 and the relative viability (AZD1208 + Decitabine; first compound 8 µM) was 0.383.
